Source: patent publication US12653191B2, “Active compound combinations” (Bayer Aktiengesellschaft, priority 2020, dated 2026)
Like-named read-outs stand apart in the source and are kept apart here.

What was measured:
Diaporthe citri [1] = experiment: in vitro-Test with fungal microorganisms, Method A (tables F1-F11); assay type: cell-based; conditions: Diaporthe citri, read-out: Efficacy
Summary of the method: (§1)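 Broth microdilution-type growth test in potato dextrose medium with spores or mycelium of the fungus, compound pre-dried from methanol/emulsifier. Efficacy from 620 nm extinction after 3-5 days at 20° C, scaled 0% (untreated growth) to 100% (no growth).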

Botrytis cinerea = experiment: in vitro-Test with fungal microorganisms, Method A (tables B1-B14); assay type: cell-based; conditions: Botrytis cinerea
Summary of the method: as §1

Alternaria alternata = experiment: in vitro-Test with fungal microorganisms, Method B (tables A13-A22); assay type: cell-based; conditions: Alternaria alternata, read-out: Efficacy
Summary of the method: (§2)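 Efficacy, relative to untreated control (0% = growth as in control, 100% = no growth), from photometric growth measurement at 600 nm after 3 to 7 days at 20° C., 85% relative humidity. Compound applied in methanol+emulsifier, solvent evaporated, then spore/mycelium-amended liquid medium added.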

Alternaria alternate = experiment: in vitro-Test with fungal microorganisms, Method A (tables A1-A12); assay type: cell-based, Alternaria alternata; conditions: Alternaria, applied alone, read-out: Efficacy %
Summary of the method: as §1

Diaporthe citri [2] = experiment: in vitro-Test with fungal microorganisms, Method B (tables F12-F15); assay type: cell-based
Protocol: Example: In Vitro-Test with Fungal Microorganisms
Wells of 96-well microtiter plates are filled with 30 μl of a preparation of test compound or compound combination in methanol+emulsifier alkylaryl-polyglycol-ether. Thereafter, the solvent is evaporated in a hood. At the next step, 200 μl of liquid growth medium is given, that has been amended with an appropriate concentration of spores or mycelium suspension of the test fungus.
With the aid of a photometer, the extinction in all wells is measured at the wavelength of 600 nm.
The microtiter plates are incubated for 3 to 7 days at 20° C. and 85% relative humidity. After the incubation inhibition of growth is determined photometrically. Efficacy is calculated in relation to the untreated control, 0% efficacy means fungal growth as high as in untreated control while 100% efficacy means no fungal growth is measured.
The data in tables A1 to A12, B1 to B14, C1 to C10, D1 to D8, E1 to E8, F1 to F11, G1 to G4, H1 to H4 and I1 to I5 were collected according to Method A. The data in tables A13 to A22, B15 to B18, C11 to C20, E9 to E16, F12 to F15, G5 to G15, H5 to H8, I6 to I11 and J1 to J11 were collected according to Method B.

Parastagonospora nodorum = experiment: in vitro-Test with fungal microorganisms, Method B (tables H5-H8); assay type: cell-based; conditions: Parastagonospora nodorum, read-out: Efficacy
Summary of the method: as §2

Cercospora beticola [3] = experiment: in vitro-Test with fungal microorganisms, Method B (tables C11-C20); assay type: cell-based; conditions: Cercospora beticola, read-out: Efficacy %
Summary of the method: as §2

Fusarium culmorum [4] = experiment: in vitro-Test with fungal microorganisms, Method A (tables G1-G4); assay type: cell-based
Summary of the method: as §1

Cordana musae [5] = experiment: in vitro-Test with fungal microorganisms, Method A (tables E1-E8); assay type: cell-based; conditions: Neocordana musae, read-out: Efficacy %
Summary of the method: as §1

Colletotrichum coccodes = experiment: in vitro-Test with fungal microorganisms, Method B (tables J1-J11); assay type: cell-based; conditions: Colletotrichum coccodes, read-out: Efficacy %
Summary of the method: as §2

[6] = tested on: Ustilago segetum var. avenae; experiment: in vitro-Test with fungal microorganisms, Method B (tables I6-I11); assay type: cell-based; conditions: read-out: Efficacy %
Summary of the method: as §2

[7] = tested on: Ustilago segetum var. avenae; experiment: in vitro-Test with fungal microorganisms, Method A (tables I1-I5); assay type: cell-based; conditions: alone, read-out: Efficacy %
Summary of the method: as §1

[8] = tested on: Colletotrichum lindemuthianum; experiment: in vitro-Test with fungal microorganisms, Method A (tables D1-D8); assay type: cell-based
Summary of the method: as §1

Cercospora beticola [9] = experiment: in vitro-Test with fungal microorganisms, Method A (tables C1-C10); assay type: cell-based; conditions: Cercospora beticola, read-out: Efficacy %
Summary of the method: as §1

Cordana musae [10] = experiment: in vitro-Test with fungal microorganisms, Method B (tables E9-E16); assay type: cell-based; conditions: for Efficacy %: single substance
Summary of the method: as §2

Fusarium culmorum [11] = experiment: in vitro-Test with fungal microorganisms, Method B (tables G5-G15); assay type: cell-based; conditions: Fusarium culmorum, single active compound, 0.08 ppm; read-out: Efficacy
Summary of the method: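 Compound in methanol plus alkylaryl-polyglycol-ether emulsifier dried in wells, then liquid medium containing Fusarium culmorum spores or mycelium added. Incubated 3-7 days at 20° C, 85% relative humidity; growth read at 600 nm. Efficacy relative to untreated control (0% equals control growth, 100% none).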

## CON=C(C(=O)OC)c1ccccc1CON=C(C)c1cccc(C(F)(F)F)c1 [(3.020) trifloxystrobin, trifloxystrobin]
Diaporthe citri [1]; applied alone
  inhibition of growth at 0.008 ppm: 65%
  inhibition of growth at 0.04 ppm: 95%
Diaporthe citri [1]; single active
  inhibition of growth at 0.008 ppm: 63%
  inhibition of growth at 0.04 ppm: 95%
Diaporthe citri [1]; single active, 0.2 ppm
  inhibition of growth at 0.2 ppm: 95%
Diaporthe citri [1]; single active, 1.0 ppm
  inhibition of growth at 1 ppm: 96%
Botrytis cinerea; alone, 0.008 ppm, read-out: Efficacy %
  inhibition of growth at 0.008 ppm: 19%
Botrytis cinerea; alone, 0.04 ppm, read-out: Efficacy %
  inhibition of growth at 0.04 ppm: 0%
Botrytis cinerea; alone, 0.2 ppm, read-out: Efficacy %
  inhibition of growth at 0.2 ppm: 0%
Botrytis cinerea; alone, 1.0 ppm, read-out: Efficacy %
  inhibition of growth at 1 ppm: 37%
Alternaria alternata; 0.04 ppm
  inhibition of growth at 0.04 ppm: 49%
Alternaria alternata; 0.2 ppm
  inhibition of growth at 0.2 ppm: 85%
Alternaria alternate; 0.008 ppm
  inhibition of growth at 0.008 ppm: 44%
Alternaria alternate; 0.04 ppm
  inhibition of growth at 0.04 ppm: 87%
Alternaria alternate; 0.2 ppm
  inhibition of growth at 0.2 ppm: 95%
Alternaria alternate; 1.0 ppm
  inhibition of growth at 1 ppm: 96%
Diaporthe citri [2]; Table F15, 0.008 ppm alone
  Efficacy: 68%
Parastagonospora nodorum; 0.008 ppm
  inhibition of growth at 0.008 ppm: 17%
Parastagonospora nodorum; 0.04 ppm
  inhibition of growth at 0.04 ppm: 54%
Parastagonospora nodorum; 0.2 ppm
  inhibition of growth at 0.2 ppm: 83%
Parastagonospora nodorum; 1 ppm
  inhibition of growth at 1 ppm: 87%
Cercospora beticola [3]; single compound, 0.008 ppm
  inhibition of growth at 0.008 ppm: 96%
Fusarium culmorum [4]; Fusarium culmorum, 0.2 ppm, alone, read-out: Efficacy
  inhibition of growth at 0.2 ppm: 22%
Fusarium culmorum [4]; Fusarium culmorum, 1.0 ppm, alone, read-out: Efficacy
  inhibition of growth at 1 ppm: 5%
Fusarium culmorum [4]; Fusarium culmorum, Table G1, 0.04 ppm alone, read-out: Efficacy
  inhibition of growth at 0.04 ppm: 0%
Fusarium culmorum [4]; Fusarium culmorum, Table G1, 0.2 ppm alone, read-out: Efficacy
  inhibition of growth at 0.2 ppm: 15%
Fusarium culmorum [4]; Fusarium culmorum, Table G1, 1.0 ppm alone, read-out: Efficacy
  inhibition of growth at 1 ppm: 15%
Cordana musae [5]; mixing partner alone
  inhibition of growth at 0.008 ppm: 3%
  inhibition of growth at 1 ppm: 66%
Cordana musae [5]; single substance
  inhibition of growth at 0.008 ppm: 13%
  inhibition of growth at 1 ppm: 77%
Cordana musae [5]; single substance, 0.04 ppm
  inhibition of growth at 0.04 ppm: 67%
Cordana musae [5]; single substance, 0.2 ppm
  inhibition of growth at 0.2 ppm: 48%
Colletotrichum coccodes; 0.04 ppm
  inhibition of growth at 0.04 ppm: 35%
Colletotrichum coccodes; single active compound at 0.008 ppm
  inhibition of growth at 0.008 ppm: 0%
Colletotrichum coccodes; single active compound at 1 ppm
  inhibition of growth at 1 ppm: 50%
[6]; 0.04 ppm
  inhibition of growth at 0.04 ppm: 38%
[6]; 0.2 ppm
  inhibition of growth at 0.2 ppm: 54%
[6]; 1 ppm
  inhibition of growth at 1 ppm: 60%
[7]; 0.008 ppm
  inhibition of growth at 0.008 ppm: 19%
[7]; 0.04 ppm
  inhibition of growth at 0.04 ppm: 0%
[7]; 1.0 ppm
  inhibition of growth at 1 ppm: 64%
[7]; 5.0 ppm
  inhibition of growth at 5 ppm: 100%
[8]; Colletotrichum lindemuthianum, mixing partner alone, 0.008 ppm, read-out: Efficacy %
  inhibition of growth at 0.008 ppm: 30%
[8]; Colletotrichum lindemuthianum, mixing partner alone, 0.04 ppm, read-out: Efficacy %
  inhibition of growth at 0.04 ppm: 80%
[8]; Colletotrichum lindemuthianum, mixing partner alone, 0.2 ppm, read-out: Efficacy %
  inhibition of growth at 0.2 ppm: 92%
[8]; Colletotrichum lindemuthianum, mixing partner alone, 1.0 ppm, read-out: Efficacy %
  inhibition of growth at 1 ppm: 88%
[8]; Colletotrichum lindemuthianum, single active at 0.008 ppm, read-out: Efficacy %
  inhibition of growth at 0.008 ppm: 25%
[8]; Colletotrichum lindemuthianum, single active at 0.04 ppm, read-out: Efficacy %
  inhibition of growth at 0.04 ppm: 66%
[8]; Colletotrichum lindemuthianum, single active at 0.2 ppm, read-out: Efficacy %
  inhibition of growth at 0.2 ppm: 85%
[8]; Colletotrichum lindemuthianum, single active at 1.0 ppm, read-out: Efficacy %
  inhibition of growth at 1 ppm: 84%
Cercospora beticola [9]; 0.008 ppm alone
  inhibition of growth at 0.008 ppm: 95%
Cercospora beticola [9]; 0.04 ppm alone
  inhibition of growth at 0.04 ppm: 100%
Cercospora beticola [9]; 0.2 ppm alone
  inhibition of growth at 0.2 ppm: 100%
Cercospora beticola [9]; 1.0 ppm alone
  inhibition of growth at 1 ppm: 100%

## N#Cc1sc2c(=O)c3ccccc3c(=O)c=2sc1C#N [(5.010) dithianon, dithianon]
Diaporthe citri [1]; Table F10, 0.8 ppm alone
  inhibition of growth at 0.8 ppm: 9%
Diaporthe citri [1]; Table F10, 4.0 ppm alone
  inhibition of growth at 4 ppm: 99%
Diaporthe citri [1]; Table F10, 20.0 ppm alone
  inhibition of growth at 20 ppm: 98%
Diaporthe citri [1]; applied alone, 0.8 ppm
  inhibition of growth at 0.8 ppm: 17%
Diaporthe citri [1]; applied alone, 20.0 ppm
  inhibition of growth at 20 ppm: 98%
Botrytis cinerea; read-out: Efficacy
  inhibition of growth at 0.8 ppm: 0%
  inhibition of growth at 20 ppm: 100%
Botrytis cinerea; 4.0 ppm, read-out: Efficacy
  inhibition of growth at 4 ppm: 23%
Botrytis cinerea; alone, read-out: Efficacy %
  inhibition of growth at 0.8 ppm: 0%
  inhibition of growth at 20 ppm: 99%
Alternaria alternata; single compound, 0.4 ppm
  inhibition of growth at 0.4 ppm: 0%
Alternaria alternata; single compound, 2 ppm
  inhibition of growth at 2 ppm: 32%
Cordana musae [10]; Neocordana musae, single active, 2 ppm, read-out: Efficacy
  inhibition of growth at 2 ppm: 95%
Cordana musae [10]; 0.08 ppm
  Efficacy %: 0%
Cordana musae [10]; 10 ppm
  Efficacy %: 100%
Diaporthe citri [2]; Table F13, 0.4 ppm alone
  Efficacy: 13%
Parastagonospora nodorum; 0.08 ppm
  inhibition of growth at 0.08 ppm: 12%
Parastagonospora nodorum; 0.4 ppm
  inhibition of growth at 0.4 ppm: 5%
Parastagonospora nodorum; 2 ppm
  inhibition of growth at 2 ppm: 96%
Cercospora beticola [3]; 0.08 ppm
  inhibition of growth at 0.08 ppm: 0%
Cercospora beticola [3]; 0.4 ppm
  inhibition of growth at 0.4 ppm: 3%
Cercospora beticola [3]; 2 ppm
  inhibition of growth at 2 ppm: 100%
Fusarium culmorum [4]; 20.0 ppm, alone
  Efficacy: 100%
Fusarium culmorum [4]; Fusarium culmorum, 4.0 ppm, alone, read-out: Efficacy
  inhibition of growth at 4 ppm: 0%
Cordana musae [5]; single substance, 0.8 ppm
  inhibition of growth at 0.8 ppm: 0%
Cordana musae [5]; single substance, 4.0 ppm
  inhibition of growth at 4 ppm: 100%
Colletotrichum coccodes; single active compound at 0.08 ppm
  inhibition of growth at 0.08 ppm: 0%
Colletotrichum coccodes; single active compound at 0.4 ppm
  inhibition of growth at 0.4 ppm: 11%
Colletotrichum coccodes; single active compound at 10 ppm
  inhibition of growth at 10 ppm: 100%
Fusarium culmorum [11]
  inhibition of growth at 0.08 ppm: 4%
[6]; 0.08 ppm
  inhibition of growth at 0.08 ppm: 2%
[6]; 0.4 ppm
  inhibition of growth at 0.4 ppm: 0%
[6]; 2 ppm
  inhibition of growth at 2 ppm: 29%
[7]; 0.8 ppm
  inhibition of growth at 0.8 ppm: 12%
[7]; 4.0 ppm
  inhibition of growth at 4 ppm: 100%
[7]; 20.0 ppm
  inhibition of growth at 20 ppm: 99%
[8]; Colletotrichum lindemuthianum, single active at 0.8 ppm, read-out: Efficacy %
  inhibition of growth at 0.8 ppm: 0%
[8]; Colletotrichum lindemuthianum, single active at 4.0 ppm, read-out: Efficacy %
  inhibition of growth at 4 ppm: 100%
[8]; Colletotrichum lindemuthianum, single active at 20.0 ppm, read-out: Efficacy %
  inhibition of growth at 20 ppm: 100%
[8]; single active at 0.8 ppm
  Efficacy %: 0%
Cercospora beticola [9]; 0.8 ppm
  inhibition of growth at 0.8 ppm: 0%
Cercospora beticola [9]; 4.0 ppm alone
  inhibition of growth at 4 ppm: 100%
Cercospora beticola [9]; 4.0 ppm
  inhibition of growth at 4 ppm: 100%
Cercospora beticola [9]; 20.0 ppm alone
  inhibition of growth at 20 ppm: 99%
Cercospora beticola [9]; 20.0 ppm
  inhibition of growth at 20 ppm: 99%
